According to patent US7655253B2, “Navel orangeworm pheromone composition” (Bedoukian Research, Inc., priority 2004, dated 2010):

What was measured:
[1] = system: male moth antennae (navel orangeworm); test: GC-EAD using male navel orangeworm antennae as sensing element; design: species or system Amyelois transitella; details: for EAD activity of natural constituent: peaks in female pheromone gland extract or its fractions; for EAD activity of synthetic or authentic compound: synthetic standard
Method: General. Gas chromatography-mass spectrometry (GC-MS), described in Examples 1-6, was obtained with a 5973 Network Mass Selective Detector linked to a 6890 Network GC System (Agilent Technologies, Palo Alto, Calif.) operated either in the electron impact (EI) or chemical ionization (CI) mode. Chromatographic resolution was done on an HP-5MS column (30 m×0.25 mm; 0.25 μm; Agilent) that was operated at 70° C. for 1 min, increased to 250° C. at a rate of 10° C./min and held at this temperature for 10 min. Vapor phase infrared spectroscopy was carried out on a Win GC/IR Pro (Varian Inc., formerly Digilab, Randolph, Mass.) with a GC/IR interface and a Scimitar FTS 2000 linked to a 6890 Network GC System (Agilent). Separation was done on a HP-5 column (30 m×0.32 mm; 0.25 μm; Agilent) operated at 100° C. for 1 min, increased to 250° C. at a rate of 20° C./min and held at this temperature for 5 min; the transfer line and light pipe were operated at 250° C. Gas chromatography with electroantennographic detection (GC-EAD) was done with two different systems: HP 5890 and HP 6890 (Agilent) both having Syntech's GC-EAD transfer lines and temperature control units (Hilversum, The Netherlands). In both systems, the effluent from the capillary column was split into EAD and flame ionization detector (FID) in 3:1 ratios. Male antennae were placed in EAG probes (Syntech) and held in place with Spectra 360 electrode gel (Parker Laboratories, Orange, N.J.). These probes were connected to AM-01 amplifiers (Syntech). The analog signals were fed into A/D 35900E interfaces (Agilent) and acquired simultaneously with FID signal on an Agilent Chemstation. Chromatographic separations were done either with HP-5MS column operated as in GC-MS or with HP-INNOWAX column (30 m×0.32 mm; 0.25 μm; Agilent) operated at 70° C. for 1 min, increased to 250° C. at a rate of 10° C./min and held at this temperature for 5 min.
Gas chromatography coupled with an electroantennographic detector (GC-EAD) using male moth antennae as the sensing element was used to determine the active constituents in these SSR-active fractions (3% and hexane). […] The peaks were numbered in the order of their retention times (tR) in a non-polar column (1: tR, 17.30 min; 2: 18.44 min; 3: 18.96 min; 4: 19.08 min; 5: 20.9 min; 6: 23.8 min). The retention times of these EAD-active peaks in a polar column (HP-INNOWAX) were: 16.59, 17.37, 18.32, and 18.72 min (3% fraction) and 18.52 and 20.22 min (hexane fraction).
Pheromone glands were individually dissected out of >2,000 virgin female NOW, and the glands were extracted in −250 microliters of pentane in composite batches of −250-300 glands per extract. The extracts were screened by GC-EAD analysis to locate the compounds which elicited responses from male antennae (i.e., potential pheromone compounds). The extracts were then concentrated to ˜10-20 microliters, and aliquots were analyzed on several GC columns with different polarity, by coupled GC-mass spectrometry, and by coupled GC-Fourier transform infrared spectrometry. A parallel set of studies was conducted with composite pheromone gland extracts prepared from Pyralis females. A subset of the extracts were also combined and fractionated by liquid chromatography, to provide samples for wind tunnel tests.

[2] = system: antennae of male meal moth; test: GC-EAD using male meal moth antennae; design: species or system Pyralis farinalis
Method: General. Gas chromatography-mass spectrometry (GC-MS), described in Examples 1-6, was obtained with a 5973 Network Mass Selective Detector linked to a 6890 Network GC System (Agilent Technologies, Palo Alto, Calif.) operated either in the electron impact (EI) or chemical ionization (CI) mode. Chromatographic resolution was done on an HP-5MS column (30 m×0.25 mm; 0.25 μm; Agilent) that was operated at 70° C. for 1 min, increased to 250° C. at a rate of 10° C./min and held at this temperature for 10 min. Vapor phase infrared spectroscopy was carried out on a Win GC/IR Pro (Varian Inc., formerly Digilab, Randolph, Mass.) with a GC/IR interface and a Scimitar FTS 2000 linked to a 6890 Network GC System (Agilent). Separation was done on a HP-5 column (30 m×0.32 mm; 0.25 μm; Agilent) operated at 100° C. for 1 min, increased to 250° C. at a rate of 20° C./min and held at this temperature for 5 min; the transfer line and light pipe were operated at 250° C. […]
Pheromone glands were individually dissected out of >2,000 virgin female NOW, and the glands were extracted in −250 microliters of pentane in composite batches of −250-300 glands per extract. […] The extracts were then concentrated to ˜10-20 microliters, and aliquots were analyzed on several GC columns with different polarity, by coupled GC-mass spectrometry, and by coupled GC-Fourier transform infrared spectrometry. […]

NOW males = test: Wind tunnel bioassays of male NOW flight responses; format: in vivo, Amyelois transitella
Method: Flight responses of male NOW to different blends and doses of synthesized pheromone components were tested in the ARS wind tunnel. Males were 2-3 days old and were used during the last two hours of shotophase (dark cycle). The wind tunnel room was maintained at 23-26° C. with >35% relative humidity. NOW males were placed in individual aluminum-screen cages during their 1st or 2nd photophase and then held in an incubator until one hour prior to testing, when they were transferred from their dark incubator to the wind tunnel. […] After conditioning to ambient conditions in the wind tunnel for one hour, males were assayed individually to test compounds formulated on 1cm dia. filter paper disks. Information recorded included the number of males per trial that reached the pheromone source, the time to reach the pheromone source, and observations of the flight behavior (e.g., relatively straight flight; looping flight; veering out of the pheromone plume, etc.)
Subsequent wind tunnel tests were evaluated on quantitative as well as qualitative responses of NOW males to test formulations. All treatments were applied to 1 cm filter paper disks in at least 25 ul of hexane, to fully “wet” the paper surface, and at least 5 males were tested individually to each pheromone blend.

meal moth = test: Field trap tests, UC Davis, meal moth captures; format: in vivo, Pyralis farinalis; details: for catches of meal moth in traps baited with virgin female navel orangeworm plus added compound: synthetic sample 0.5 mg per device added
Method: (§1) Experimental. Tests were conducted in almond and walnut plot fields in the UC Davis campus. Pheromone samples (0.5 mg) were formulated in rubber septa or in 12 mm diameter, 3 mm thick discs (made of ES fiber, Chisso Co. Ltd, Tokyo, Japan) and loaded into Pherocon 1C traps (Trece Inc., Salinas, Calif.). Three or five 1 to 3-day old virgin females were placed in fiberglass screen cages (Curtis, C. E. and Clark, J. D., J Econ Entomol 77:1057-1061 (1984) Curtis et al., J Econ Entomol 78:1425-1430 (1985)). Baited and control traps were placed at ca. 1.8 m height in randomized blocks with the intertrap distance of ca. 10 m. Capture data were transformed to log (x+0.5) and analyzed by ANOVA. […] Means of captures are untransformed, and error bars show one standard error (SE).

[3] = system: olfactory receptor neurons (ORN) in sensilla trichodea of male moth antennae; test: Single sensillum recordings (SSR) from sensilla trichodea; design: species or system Amyelois transitella
From the text: Single sensillum recordings (SSR). Male moths were immobilized with dental wax on the recording stage of a single sensillum recording unit (Syntech, INR-02), the tip of the sensilla were cut (Kaissling, K. E. Single unit and electroantennogram recordings in insect olfactory organs, In: Spielman A. I., Brand J. G. (ed) Experimental Cell Biology of Taste and Olfaction: Current Techniques and Protocols, CRC Press, Boca Raton, pp.361-386 (1995)) and placed under a stereomicroscope (SZX12,Olympus, Tokyo, Japan). The indifferent (ground) electrode was a thin tungsten electrode inserted into the head. The recording glass electrode was slipped over the cut tip of the sensilla with a Piezo Manipulator (PM-10, World Precision Instruments, Sarasota, Fla.) while the signal was monitored with a Tektronix oscilloscope (TDS-2014). The pre-amplified signal was acquired with an acquisition system (IDAC-USB, Syntech) and SSR software (Autospike 2000, Syntech). The antennal preparation was continuously flushed with clean air at 0.5 m/s. Each stimulus was applied to a filter paper, dried at least 10 min, and placed within a glass cartridge (7 mm i.d.; 5 cm long). The cartridge opening was placed 1 cm in front of the antennae. The stimulus air was delivered by a stimulus controller (CD-02/E, Syntech).

navel orangeworm = test: Field trap tests, UC Davis, navel orangeworm captures; format: in vivo, Amyelois transitella; details: 0.5 mg lure, 3-wk period
Method: as §1

[4] = system: major pheromone-binding protein (AtraPBP); test: Binding assays with recombinant olfactory proteins; design: species or system navel orangeworm, A. transitella; details: preliminary screening of ligands
From the text: Synthetic pheromone compositions can be conveniently tested in the assays described below. For example, the synthetic pheromone compositions of the present invention can be tested.to determine affinity for a pheromone-binding protein (AtraPBP) present in the navel orangeworm. Alternatively, the compositions can be tested for the ability to stimulate the olfactory receptor neurons (ORNs) in the insect's sensilla trichodea producing a response that indicates the presence or absence of a pheromone. In a typical embodiment, the compositions stimulate an electroantennogram response from an insect pest antenna, as described below.
Results. A comprehensive approach was taken in studying chemical communication in the navel orangeworm, A. transitella. Pheromone- and odorant-binding proteins were isolated, cloned, and expressed.

Structure (SMILES): CCCCCCCCCCCCCCCC(=O)OCC (single isomer, unassigned) [Compound 2, ethyl palmitate]
- EAD activity of natural constituent [1]: EAD-active

Structure (SMILES): CC/C=C\C/C=C\C/C=C\C/C=C\C/C=C\CCCCCCC [(Z,Z,Z,Z,Z)-3,6,9,12,15-tricosapentaene]
- share of NOW antennal preparations with detectable response ([1]; NOW gland extract screened by GC-EAD): about half
- EAD activity of natural constituent [1]: much weaker response
- EAD response of male meal moth antennae [2]: consistently elicited responses from the male antennae

Structure (SMILES): CCCCCCCCCCCCCCCC(=O)OCC [ethyl palmitate]
- EAD activity of synthetic or authentic compound [1]: EAD activity

Structure (SMILES): CC/C=C\C=C/CCCCCCCCCCO [Z11,Z13-16:OH, Z,Z-11,13-hexadecadien-1-ol]
- effect of adding the compound to the blend of Z11,Z13-16:Ald with tricosapentaene (NOW males; wind tunnel): further enhanced attraction

Structure (SMILES): CC/C=C\C=C/CCCCCCCCCCOC(C)=O (single isomer, unassigned) [Compound 4, (Z,Z)-11,13-hexadecadien-1-yl acetate]
- EAD activity of natural constituent [1]: EAD-active
- catches of meal moth in traps baited with virgin female navel orangeworm plus added compound (meal moth): completely shut off

Structure (SMILES): CC/C=C\C=C/CCCCCCCCCC(=O)OCC (single isomer, unassigned) [Compound 3, ethyl (Z,Z)-11,13-hexadecadienoate]
- EAD activity of natural constituent [1]: EAD-active
- EAD activity of synthetic or authentic compound [1]: EAD active

Structure (SMILES): CC/C=C\C/C=C\C/C=C\C/C=C\C/C=C\CCCCCCCCC (single isomer, unassigned) [Compound 6, (Z,Z,Z,Z,Z)-3,6,9,12,15-pentacosapentaene]
- EAD activity of natural constituent [1]: EAD-active

Structure (SMILES): CC/C=C\C=C/CCCCCCCCCCOC(C)=O [(Z,Z)-11,13-hexadecadien-1-yl acetate]
- EAD activity of synthetic or authentic compound [1]: same electrophysiological activity as the natural product
- effect of removing the compound from the full mixture on meal moth captures (meal moth; partial mixtures): increased dramatically captures of male meal moth
- catches of meal moth in traps baited with virgin female navel orangeworm plus added compound (meal moth): complete lack of captures

Structure (SMILES): CC/C=C\C/C=C\C/C=C\C/C=C\C/C=C\CCCCCCC (single isomer, unassigned) [Compound 5, (Z,Z,Z,Z,Z)-3,6,9,12,15-tricosapentaene]
- EAD activity of natural constituent [1]: EAD-active

Structure (SMILES): CC/C=C/C=C/CCCCCCCCCC=O [(E,E)-1]
- SSR response of olfactory receptor neurons [3]: activated mainly a small spike ORN, with small activation of a large spike cell

Structure (SMILES): CC/C=C/C=C\CCCCCCCCCC=O [(Z,E)-1, Z,E-11,13-hexadecadienal]
- EAD activity of natural constituent [1]: small EAD-active peaks

Structure (SMILES): CC/C=C\C=C/CCCCCCCCCC=O (single isomer, unassigned) [Compound 1, (Z,Z)-11,13-hexadecadienal]
- male NOW response in wind tunnel (NOW males; synthesized standards and crude extract): no test males responded
- EAD activity of natural constituent [1]: EAD-active
- EAD activity of natural constituent ([1]; listed as (Z,Z)-1): strongest EAD-active peak
- captures of male navel orangeworm in baited traps (navel orangeworm): captured no moths
- SSR response of olfactory receptor neurons [3]: large spike amplitude cells (FIG. 1A) were activated
- affinity to AtraPBP [4]: apparent high affinity

Structure (SMILES): CC/C=C\C=C\CCCCCCCCCC=O [(E,Z)-1, E,Z-11,13-hexadecadienal]
- EAD activity of natural constituent [1]: small EAD-active peaks
